Read-outs that look alike come from different tables or passages of the source. Marks after values point to notes of the source that are not given here.
Experiments:
[1] = tested on: myeloma and NSCLC mouse xenograft models; details: at a dose 33% of the MAD; cited from earlier work
[2] = Plasma pharmacokinetics after 2-hour IV infusion (LC-MS/MS); details: for AUC(0-inf): read-out: AUC(I) Mean; for AUC(0-t): read-out: AUC(tf) Mean
[3] = tested on: metabolically active sites of disease; assay: FDG-PET/CT tumor metabolic activity (SUVmax); details: RP2D 12 mg/m^2, 10 evaluable subjects; responder = SUVmax decrease greater than 30%; 2-sided 95% CI: 0.3%, 44.5%
Excerpt: Metabolic activity data were obtained for research use only and were not used for clinical management of subjects.

solid tumors = assay: Tumor response by CT or MRI and RECIST; type: in vivo, human
[4] = tested on: PHA-stimulated lymphocytes in whole blood; assay: Ex vivo phytohemagglutinin lymphocyte stimulation assay (BrdU incorporation)
Description: Whole blood isolated from subjects was treated with phytohemagglutinin (PHA) to stimulate cell division in lymphocytes. Following a brief 30-minute exposure to bromodeoxyuridine (BrdU), cells were harvested and stained using an FITC-conjugated antibody specific for BrdU, counterstained with propidium iodide/RNase A, and analyzed using a FACSCalibur flow cytometer.

mouse xenograft model = details: cited from earlier work
[5] = tested on: subjects with advanced malignancies; details: human, in vivo, iv, 28 days
Rb phosphorylation = details: cited from earlier work

## CCc1cnn2c(NCc3ccc[n+]([O-])c3)cc(N3CCCC[C@H]3CCO)nc12 [dinaciclib]
[1]
  tumor response in xenograft models: complete tumor regression
[2]; 0.33 to 14 mg/m^2
  CL dependence on dose: dose independent
[2]; 2-hour IV administration
  time at which Cmax was observed after the initiation of the infusion: approximately 2 hours
[2]; Day 1, 0.33 mg/m^2, N 1
  CL Mean: 12.4 L/hr/m^2
  Vd Mean: 35.9 L/m^2
  t½ Mean: 2.01 h
  AUC(0-inf): 26.7 ng·h/mL
  AUC(0-t): 26.1 ng·h/mL
[2]; Day 1, 0.66 mg/m^2, N 1
  CL Mean: 18.5 L/hr/m^2
  Cmax Mean: 18.6 ng/mL
  Tmax Median: 2 h
  Vd Mean: 39.4 L/m^2
  t½ Mean: 1.48 h
  AUC(0-inf): 35.7 ng·h/mL
  AUC(0-t): 35.3 ng·h/mL
[2]; Day 1, 1.32 mg/m^2, N 1
  Cmax Mean: 63.8 ng/mL
  Tmax Median: 2 h
  AUC(0-t): 112 ng·h/mL
[2]; Day 1, 2.59 mg/m^2, N 3 (n=1)
  Cmax Mean: 100^e ng/mL
  Tmax Median: 1^e hr
[2]; Day 1, 2.59 mg/m^2, N 3 (n=2)
  CL Mean: 12.8^d L/hr/m^2
  Vd Mean: 61.4^d L/m^2
  t½ Mean: 3.28^d hr
  AUC(0-inf): 214 ng·h/mL
[2]; Day 1, 3.63 mg/m^2, N 7 (n=6)
  CL Mean: 11.2^h L/hr/m^2
  Cmax Mean: 210^i ng/mL
  Tmax Median: 1^i hr
  Vd Mean: 40.2^h L/m^2
  t½ Mean: 2.9^h hr
  AUC(0-inf): 458 ng·h/mL
[2]; Day 1, 5.08 mg/m^2, N 3
  CL Mean: 15.9 L/hr/m^2
  Vd Mean: 72.7 L/m^2
[2]; Day 1, 7.11 mg/m^2, N 7
  CL Mean: 14.1 L/hr/m^2
  Vd Mean: 61.7 L/m^2
[2]; Day 1, 10 mg/m^2, N 3
  CL Mean: 16.1 L/hr/m^2
  Vd Mean: 68.5 L/m^2
  AUC(0-t): 681 ng·h/mL
[2]; Day 1, 12 mg/m^2, N 11
  CL Mean: 12.1 L/hr/m^2
  Vd Mean: 55.4 L/m^2
[2]; Day 1, 14 mg/m^2, N 5
  CL Mean: 9.24 L/hr/m^2
  Vd Mean: 39.8 L/m^2
[2]; Day 15, 0.33 mg/m^2, N 1
  CL Mean: 7.67 L/hr/m^2
  Vd Mean: 51 L/m^2
  t½ Mean: 4.61 h
[2]; Day 15, 0.66 mg/m^2, N 1
  CL Mean: 23.9 L/hr/m^2
  Vd Mean: 57.6 L/m^2
  AUC(0-t): 27.2 ng·h/mL
[2]; Day 15, 1.32 mg/m^2, N 1
  CL Mean: 9.83 L/hr/m^2
  Vd Mean: 48 L/m^2
[2]; Day 15, 2.59 mg/m^2, N 3 (n=2)
  CL Mean: 15.6^m L/hr/m^2
  Vd Mean: 80.7^m L/m^2
[2]; Day 15, 3.63 mg/m^2, N 6 (n=3)
  CL Mean: 12.5° L/hr/m^2
  Vd Mean: 71.6° L/m^2
[2]; Day 15, 5.08 mg/m^2, N 2
  CL Mean: 14.6 L/hr/m^2
  Cmax Mean: 147 ng/mL
  Tmax Median: 2 h
  Vd Mean: 66.2 L/m^2
  t½ Mean: 3.17 h
  AUC(0-inf): 354 ng·h/mL
[2]; Day 15, 7.11 mg/m^2, N 7
  Cmax Mean: 306 ng/mL
  Tmax Median: 1 h
  AUC(0-t): 710 ng·h/mL
[2]; Day 15, 7.11 mg/m^2, N 7 (n=6)
  CL Mean: 12.4^q L/hr/m^2
  Vd Mean: 49.9^q L/m^2
  t½ Mean: 2.71^q hr
  AUC(0-inf): 686 ng·h/mL
[2]; Day 15, 10 mg/m^2, N 3
  CL Mean: 15.2 L/hr/m^2
  Cmax Mean: 321 ng/mL
  Tmax Median: 2 h
  Vd Mean: 90.6 L/m^2
  t½ Mean: 4.14 h
  AUC(0-inf): 722 ng·h/mL
  AUC(0-t): 704 ng·h/mL
[2]; Day 15, 12 mg/m^2, N 10
  CL Mean: 11.5 L/hr/m^2
  Cmax Mean: 526 ng/mL
  Tmax Median: 2 h
  Vd Mean: 49.3 L/m^2
  t½ Mean: 3.16 h
  AUC(0-inf): 1270 ng·h/mL
  AUC(0-t): 1270 ng·h/mL
[2]; Day 15, 14 mg/m^2, N 4
  CL Mean: 13.9 L/hr/m^2
  Cmax Mean: 568 ng/mL
  Tmax Median: 2 h
  Vd Mean: 70.2 L/m^2
  t½ Mean: 3.43 h
  AUC(0-inf): 1180 ng·h/mL
[2]; days 1, 8, 15 of cycle 1 and day 1 of cycle 2
  accumulation in plasma: does not accumulate in plasma
[2]; Day 1, 2.59 mg/m^2, N 3
  AUC(0-t): 809 ng·h/mL
[2]; Day 1, 3.63 mg/m^2, N 7
  AUC(0-t): 465 ng·h/mL
[2]; Day 15, 2.59 mg/m^2, N 3
  AUC(0-t): 739 ng·h/mL
[2]; Day 15, 3.63 mg/m^2, N 6
  AUC(0-t): 401 ng·h/mL
[3]
  PET/CT response rate: 10.0%
Solid tumors; Subject 2902, NSCLC, 0.66 mg/m^2, stable disease
  Number of cycles: 6
Solid tumors; Subject 2910, Pseudomyxoma peritonei, 2.59 mg/m^2, stable disease
  Number of cycles: 9
Solid tumors; Subject 2913, Prostate cancer, 3.63 mg/m^2, stable disease
  Number of cycles: 4
Solid tumors; Subject 2920, Melanoma, 3.63 mg/m^2, stable disease
  Number of cycles: 10
Solid tumors; Subject 2926, Sarcoma, 7.11 mg/m^2, stable disease
  Number of cycles: 12
Solid tumors; Subject 2928, Gastrointestinal stromal tumor, 7.11 mg/m^2, stable disease
  Number of cycles: 10
Solid tumors; Subject 2931, Esophageal carcinoma, 7.11 mg/m^2, stable disease
  Number of cycles: 11
Solid tumors; Subject 2932, Adenoid cyst carcinoma, 7.11 mg/m^2, stable disease
  Number of cycles: 5
Solid tumors; Subject 2937, Adenoid cyst carcinoma, 14.0 mg/m^2, stable disease
  Number of cycles: 8
Solid tumors; Subject 2945, NSCLC, 12.0 mg/m^2, stable disease
  Number of cycles: 4
Solid tumors; all dose levels
  subjects with prolonged SD for at least 4 cycles of treatment: at least 10 subjects
Solid tumors; subjects with solid tumors, all dose levels
  complete or partial responses (RECIST): no observed complete or partial responses
[4]; 46 subjects, 0.33 to 14 mg/m^2
  plasma concentration at which BrdU incorporation was completely inhibited: > 200 ng/mL
[4]; RP2D 12 mg/m^2, 7 evaluable subjects, responder = less than 5% BrdU incorporation, 2-sided 95% CI: 59%, 100%
  BrdU response rate: 100%
[4]; RP2D 12 mg/m^2, Day 1, Predose – 2 hours, 7 patients
  Mean percent difference in BrdU uptake (95% CI): 10.72 (4.69, 16.75) percent
[4]; RP2D 12 mg/m^2, Day 1, Predose – 3 hours, 7 patients
  Mean percent difference in BrdU uptake (95% CI): 9.28 (1.44, 17.13) percent
[4]; RP2D 12 mg/m^2, Day 1, Predose – 4 hours, 7 patients
  Mean percent difference in BrdU uptake (95% CI): 6.05 (-4.03, 16.12) percent
[4]; RP2D 12 mg/m^2, Day 1, Predose – 6 hours, 7 patients
  Mean percent difference in BrdU uptake (95% CI): 10.16 (3.89, 16.43) percent
[4]; RP2D 12 mg/m^2, Day 1, Predose – 8 hours, 6 patients
  Mean percent difference in BrdU uptake (95% CI): 8.76 (2.87, 14.65) percent
[4]; RP2D 12 mg/m^2, Day 15, Predose – 2 hours, 7 patients
  Mean percent difference in BrdU uptake (95% CI): 14.82 (6.02, 23.61) percent
[4]; RP2D 12 mg/m^2, Day 15, Predose – 4 hours, 7 patients
  Mean percent difference in BrdU uptake (95% CI): 5.47 (-4.17, 15.12) percent
[4]; RP2D 12 mg/m^2, Day 15, Predose – 8 hours, 5 patients
  Mean percent difference in BrdU uptake (95% CI): 16.48 (5.63, 27.34) percent
[4]; majority of samples, at plasma concentration of 100 ng/mL
  BrdU incorporation: less than 5%
Mouse xenograft model
  minimum effective dose, defined as >50% tumor growth inhibition: 5 mg/kg
[5]
  recommended phase 2 dose (RP2D): 12 mg/m^2
Rb phosphorylation; 2 hours post treatment
  Rb phosphorylation in mouse skin biopsies: partial loss
Rb phosphorylation; 4 hours post treatment
  Rb phosphorylation in mouse skin biopsies: complete loss of Rb phosphorylation

From PMC3853718 (Journal of Translational Medicine, 2013)
